# From PMC4721062, “Oxadiazole-2-oxides may have other functional targets, in addition to SjTGR, through which they cause mortality in Schistosoma japonicum” (Parasites & Vectors, 2016)
# Read-outs that look alike come from different tables or passages of the source.
# Tests used:
# juvenile S. japonicum = experiment: microbe, parasite or virus in culture; type: cell-based; conditions: for killing at 2 µM / killing at 5 µM / killing at 50 µM / mortality at 50 µM / mortality at 100 µM: Schistosoma japonicum; for killing at 2 µM / killing at 5 µM / killing at 50 µM / Killing activity 24hr / Killing activity 48hr / Killing activity 72hr: juvenile worms; for Killing activity 24hr / Killing activity 48hr / Killing activity 72hr: 10 μM; for mortality at 50 µM / mortality at 100 µM: read-out: Mortality of juvenile worms
# In short: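 Juvenile S. japonicum, 20–30 tail-shed cercariae per well, were exposed to compounds at 2, 5, 10 and 50 μM in RPMI 1640 with 10% FBS and HEPES. Survival was scored microscopically at 24, 48 and 72 h, with death defined by disrupted internal structure or tegument or 1 min without motility. % D is dead/total, averaged over three experiments.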
# [1] = Cytotoxicity assay on Hela cells (MTT); type: cell-based; conditions: human
# Description: Cytotoxicity assays were performed using Hela cells. Cells in the exponential growth phase were collected by centrifugation and a concentration of 4–5 × 10^4/mL was created. 100 μL of the cell suspension was added to each well of a 96-well plate and cultured overnight at 37 °C in a humid atmosphere with 5 % CO2. Oxadiazole-2-oxides (at 10, 20, 40, 80 and 160 μM) were added. Each concentration was assayed in triplicate, and control wells (no cells and no drugs) were assayed at the same time. The “no cell” control wells only contained RPMI 1640 medium, MTT, DMSO, and oxadiazole-2-oxides. The “no drug” control wells contained the Hela cells, RPMI 1640 medium, MTT and DMSO. The cells were cultured for 48 h at 37 °C in a humid atmosphere with 5 % CO2. Then, 20 μL of 5 mg/mL MTT was added to each well and the culture conditions were maintained for 4 h. After this point, the medium was removed and 150 μL DMSO was added into each well to dissolve any crystallisation. The value of absorbance at 570 nm of each well was measured (at 570 nm) with a microplate reader to assess the toxic effect of the oxadiazole-2-oxides on the vertebrate cells.
# [2] = test system: juvenile S. japonicum in mice; experiment: Treatment of infected mice at juvenile worm stage; type: in vivo, Schistosoma japonicum (ICR mice); conditions: 10 mg/kg i.p. daily for 5 days from day 7 post-infection; for Number of eggs per gram of liver (Mean ± SD) / Number of worms (Mean ± SD): sacrificed day 42; for Egg reduction rate / Worm reduction rate: versus control, 10 mg/kg
# Description: (§1) The abdominal skin of each mouse (ICR, female, 22–24 g) was exposed to 20 S. japonica cercariae (as described above). The mice were intraperitoneally injected with 10 mg/kg oxadiazole-2-oxides daily for 5 days, beginning either 7 or 35 days post-infection. Control mice were treated with 10 mg/kg of the carrier medium. All mice were sacrificed 42 days post-infection. The worm burden of each mouse was confirmed by counting the number of worms observed from a portal vein perfusion. The mouse livers were digested overnight with 5 % potassium hydroxyl solution at 37 °C and the eggs in the liver tissue were counted under an inverted phase contrast microscope. The worm and egg reduction rates were calculated using the following formulas: Wormreductionrate%=meannumberofadultwormspermouseincontrolgroup−meannumberofadultwormspermouseinexperimentalgroup/meannumberofadultwormspermouseincontrolgroup. Eggreductionrate%=meannumberofeggspermouseincontrolgroup−meannumberofeggspermouseinexperimentalgroup/meannumberofeggspermouseincontrolgroup.
# [3] = test system: adult S. japonicum in mice; experiment: Treatment of infected mice at adult worm stage; type: in vivo, Schistosoma japonicum (ICR mice); conditions: for Number of eggs per gram of liver (Mean ± SD) / Number of worms (Mean ± SD) / Worm reduction rate / Egg reduction rate: mice, 10 mg/kg i.p. daily for 5 days from day 35 post-infection; for Number of eggs per gram of liver (Mean ± SD) / Number of worms (Mean ± SD): sacrificed day 42; for Worm reduction rate / Egg reduction rate: versus control
# Description: as §1
# S. mansoni = conditions: compared with 10 μM, 72 h data; cited from earlier work
# [4] = 24 h, read-out: Killing activity 24hr
# [5] = 48 h, read-out: Killing activity 48hr
# [6] = 72 h, read-out: Killing activity 72hr
SMILES,killing at 2 µM (juvenile S. japonicum; [4]),killing at 2 µM (juvenile S. japonicum; [5]),killing at 2 µM (juvenile S. japonicum; [6]),killing at 5 µM (juvenile S. japonicum; [4]),killing at 5 µM (juvenile S. japonicum; [5]),killing at 5 µM (juvenile S. japonicum; [6]),killing at 50 µM (juvenile S. japonicum; [4]),killing at 50 µM (juvenile S. japonicum; [5]),killing at 50 µM (juvenile S. japonicum; [6]),Killing activity 24hr (juvenile S. japonicum; 24 h),Killing activity 48hr (juvenile S. japonicum; 48 h),Killing activity 72hr (juvenile S. japonicum; 72 h),mortality at 50 µM (juvenile S. japonicum; 24 h),"viability at 72 h, 80 µM [1]",Number of eggs per gram of liver (Mean ± SD) [2],Number of worms (Mean ± SD) [2],Worm reduction rate [2],Number of eggs per gram of liver (Mean ± SD) [3],Number of worms (Mean ± SD) [3],further results
N#Cc1c(-c2ccc(COc3ccc(C=O)cc3)cc2)no[n+]1[O-] [Compound 26],36.4%,36.4%,50.9%,48.9%,48.9%,53.2%,46.3%,63.4%,85.4%,56.1%D,61.0%D,80.5%D,–,–,–,–,–,–,–,–
Cc1ccc2cccc(OCc3ccc(-c4no[n+]([O-])c4C#N)cc3)c2n1 [Compound 28],8.2%,13.7%,19.2%,14.8%,21.6%,26.1%,31.9%,36.2%,39.1%,14.5%D,17.4%D,30.4%D,< 30%,–,–,–,–,–,–,–
N#Cc1c(-c2ccc(COc3ccccc3)cc2)no[n+]1[O-] [Compound 23],6%,16.1%,17.7%,9%,15%,20%,69.9%,70.8%,77%,45.0%D,60.0%D,66.7%D,> 70%,–,–,–,–,–,–,–
C#CCOc1ccc(-c2no[n+]([O-])c2C#N)cc1 [Compound 20],8.5%,14.2%,19.9%,20%,24%,34%,45.6%,48.5%,67.6%,43.4%D,45.3%D,52.8%D,–,87%,"7,767.5 ± 2,676.6 (P < 0.05^**)",3.0 ± 0.9 (P < 0.05^**),69.5 (P < 0.01^*) %,10094.7 ± 1691.0 (P < 0.05^**),4.7 ± 1.1 (P > 0.05^**),Egg reduction rate [2]: 3.3 (P > 0.05^*) %; Worm reduction rate [3]: 61.1 (P < 0.01^*) %; mortality at 100 µM (juvenile S. japonicum; 72 h): 67.6 ± 4.5%
Cc1ccc(-c2no[n+]([O-])c2CO)cc1 [Compound 4b],35.2%,35.2%,42.3%,42.9%,46.9%,51%,76.5%,88.2%,100%,48.0%D,50.0%D,60.0%D,> 70%,96%,"8,669.2 ± 2,255.8 (P < 0.05^**)",1.8 ± 1.5 (P > 0.05^**),83.1 (P < 0.01^*) %,7007.8 ± 2420.2 (P < 0.05^**),9.0 ± 3.8 (P < 0.05^**),Egg reduction rate [3]: 12.8 (P > 0.05^*) %; Worm reduction rate [3]: 25.0 (P > 0.05^*) %; mortality at 100 µM (juvenile S. japonicum; 72 h): 100%
N#Cc1c(-c2ccc(OCc3ccccc3)cc2)no[n+]1[O-] [Compound 19],15.1%,15.1%,17%,12.5%,19.2%,28.8%,82.5%,92.8%,100%,43.8%D,50.0%D,65.0%D,–,–,–,–,–,–,–,–
COc1ccc(-c2no[n+]([O-])c2C#N)cc1 [Compound 7a],14.6%,29.2%,41.7%,15.7%,39.2%,39.2%,46.2%,53.3%,70%,36.7%D,36.7%D,60.0%D,–,–,–,–,–,–,–,Mortality in adult worms of S. mansoni (S. mansoni): 100.0%
COc1ccc(-c2no[n+]([O-])c2CO)cc1 [Compound 4a],29.4%,35.3%,44.1%,36.2%,48.9%,53.2%,56.8%,88.6%,90.9%,26.7%D,37.8%D,58.9%D,–,91%,"4,258.9 ± 1,910.0 (P > 0.05^**)",1.3 ± 0.8 (P > 0.05^**),87.7 (P < 0.01^*) %,7730.8 ± 1457.8 (P < 0.05^**),4.0 ± 2.5 (P > 0.05^**),Egg reduction rate [2]: 47.0 (P < 0.05^*) %; Reduction in the female worms ([3]; mice treated at adult worm stage (data not shown)): 36.8%; Egg reduction rate ([3]; 10 mg/kg): 3.8 (P > 0.05^*) %; Worm reduction rate ([3]; 10 mg/kg): 66.7 (P < 0.01^*) %; mortality at 100 µM (juvenile S. japonicum; 72 h): 90 ± 2.8%
N#Cc1c(-c2ccc(OCCBr)cc2)no[n+]1[O-] [Compound 12],17.3%,17.3%,19.2%,16.4%,18.2%,23.6%,33.3%,36.2%,72.5%,21.3%D,21.3%D,28.8%D,< 30%,–,–,–,–,–,–,–
N#Cc1c(-c2ccc(O)cc2)no[n+]1[O-] [Compound 8],12%,18%,21%,12.8%,23%,46.2%,26.8%,28.2%,33.8%,15.1%D,23.3%D,25.6%D,< 30%,–,–,–,–,–,–,Mortality in adult worms of S. mansoni (S. mansoni): 100.0%
N#Cc1c(-c2ccc(OCCCBr)cc2)no[n+]1[O-] [Compound 13],13%,13%,13%,14.2%,15.5%,15.5%,23.3%,29.9%,41%,19.0%D,19.0%D,20.3%D,< 30%,80%,"3,808.9 ± 1,288.9 (P > 0.05^**)",1.7 ± 0.7 (P > 0.05^**),84.6 (P < 0.01^*) %,8201.4 ± 2066.0 (P < 0.05^**),8.6 ± 2.4 (P < 0.05^**),Egg reduction rate [2]: 52.6 (P < 0.05^*) %; Worm reduction rate [3]: 28.3 (P < 0.05^*) %; mortality at 50 µM (juvenile S. japonicum; 72 h): 41 ± 6.3%
